Read-outs that look alike come from different tables or passages of the source.
Key:
TbNT12.1 [1] = target: T1, TbNT12.1 (Trypanosoma brucei brucei, UniProt Q57TQ7); assay: Uptake of adenine and pentamidine by TbNT12.1 expressed in Xenopus oocytes; format: cell-based; conditions: for Transport by TbNT12.1 (in words): versus water-injected oocytes
T1 sequence (Q57TQ7 1-462): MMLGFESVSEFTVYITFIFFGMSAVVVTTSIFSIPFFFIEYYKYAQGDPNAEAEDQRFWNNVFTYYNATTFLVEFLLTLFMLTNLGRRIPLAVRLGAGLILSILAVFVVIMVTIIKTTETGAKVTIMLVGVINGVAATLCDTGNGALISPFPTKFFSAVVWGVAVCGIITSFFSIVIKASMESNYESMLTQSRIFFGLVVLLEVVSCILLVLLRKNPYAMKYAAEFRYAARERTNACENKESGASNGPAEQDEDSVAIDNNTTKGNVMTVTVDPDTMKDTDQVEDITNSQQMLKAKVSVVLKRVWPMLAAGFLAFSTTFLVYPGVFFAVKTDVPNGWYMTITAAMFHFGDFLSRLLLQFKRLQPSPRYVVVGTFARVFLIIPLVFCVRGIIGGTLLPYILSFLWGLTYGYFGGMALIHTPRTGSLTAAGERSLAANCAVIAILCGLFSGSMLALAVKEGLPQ

TbNT12.2 [2] = assay: Uptake of adenine and pentamidine by TbNT12.2 expressed in Xenopus oocytes; format: cell-based, Trypanosoma brucei; conditions: for Transport by TbNT12.2 (in words): Xenopus oocytes, versus water-injected oocytes
TbNT11.1 [3] = target: T2, TbNT11.1 (Trypanosoma brucei brucei, UniProt Q38CR7); format: cell-based; conditions: for TbNT11.1-mediated uptake of radiolabeled substrate: 1 μM [3H]substrate, Δlmant3[pTbNT11] line
TbNT11.1 [4] = target: T2, TbNT11.1; format: cell-based; conditions: for Inhibition of [14C]pentamidine uptake by unlabeled nucleobase: 1 mM unlabeled substrate, TbNT11-expressing oocytes
PPT1 = assay: Inhibition of [14C]pentamidine uptake by PF trypanosomes; format: cell-based, Trypanosoma brucei; conditions: 1 mM nucleobase, 25 μM [14C]pentamidine; data not shown
O=c1[nH]cnc2nc[nH]c12 = assay: cells, lysate or membranes; conditions: other: substrate saturation, 1 min, Δlmant3[pTbNT11.1], n=3
TbNT11.1 [5] = target: T2, TbNT11.1; assay: [3H]adenosine uptake by Δldnt1/Δldnt2[pTbNT11.1] line; format: cell-based; conditions: 0.5 μM or 100 μM [3H]adenosine; data not shown
TbNT11.1 [6] = target: T2, TbNT11.1; format: cell-based; conditions: for Inhibition of [3H]hypoxanthine uptake by TbNT11.1 (in words): 1 μM [3H]hypoxanthine, graded concentrations of inhibitor; for Inhibition of [3H]hypoxanthine uptake by nucleosides: 1 mM nucleoside, Δlmant3[pTbNT11.1] parasites; for Inhibition of [3H]hypoxanthine uptake by nucleosides / Inhibition of hypoxanthine uptake by pyrimidine nucleobases: data not shown; for Inhibition of hypoxanthine uptake by pyrimidine nucleobases: concentrations up to 1 mM
TbNT11.1 [7] = target: T2, TbNT11.1; assay: Inhibition of [3H]adenine uptake by TbNT11.1 in Δlmant3[pTbNT11.1] parasites; format: cell-based
TbNT11.1 [8] = target: T2, TbNT11.1; format: cell-based; conditions: oocytes expressing TbNT11.1; data not shown
TbNT12.2 [9] = assay: Adenine uptake by TbNT12.2 expressed in Δlmant3 promastigotes; format: cell-based, Trypanosoma brucei; conditions: 50 μM adenine, n=3
Δlmant3 parasites = assay: Background adenine uptake by Δlmant3 parasites; format: cell-based, Leishmania major; conditions: 50 μM adenine
TbNT12.1 [10] = target: T1, TbNT12.1; assay: Adenine uptake by TbNT12.1 expressed in Δlmant3 promastigotes; format: cell-based; conditions: 50 μM adenine, n=3
TbNT8.1 = TbNT8.1 (Trypanosoma brucei brucei, UniProt Q386F1); format: cell-based; conditions: 12.5 μM [3H]hypoxanthine
[11] = substrate: N=C(N)c1ccc(OCCCCCOc2ccc(C(=N)N)cc2)cc1; assay: Uptake of adenine and pentamidine by TbNT12.1 expressed in Xenopus oocytes; format: cell-based, Trypanosoma brucei; conditions: other: Xenopus oocytes, n=3; 16.0 °C
[12] = transport rates linear from 0–1 mM adenine

O=c1[nH]cnc2nc[nH]c12 [hypoxanthine]
Transport by TbNT12.1 (in words) (TbNT12.1 [1]; Xenopus oocytes): did not mediate the uptake
Transport by TbNT12.2 (in words) (TbNT12.2 [2]): did not mediate the uptake
TbNT11.1-mediated uptake of radiolabeled substrate (TbNT11.1 [3]): mediated uptake
Inhibition of [14C]pentamidine uptake by unlabeled nucleobase (TbNT11.1 [4]; 50 μM [14C]pentamidine): partially inhibited
Inhibition of [14C]pentamidine uptake by PFs (PPT1): did not inhibit

O=c1[nH]c(=O)c2nc[nH]c2[nH]1 [xanthine]
Transport by TbNT12.1 (in words) (TbNT12.1 [1]; Xenopus oocytes): did not mediate the uptake
Transport by TbNT12.2 (in words) (TbNT12.2 [2]): did not mediate the uptake
TbNT11.1-mediated uptake of radiolabeled substrate (TbNT11.1 [3]): mediated uptake
Km (TbNT11.1 [3]; read-out: Km for uptake by TbNT11.1, substrate saturation, 1 min, Δlmant3[pTbNT11.1], n=3): 7.2 ± 2.3 µM
Inhibition of [14C]pentamidine uptake by unlabeled nucleobase (TbNT11.1 [4]; 50 μM [14C]pentamidine): partially inhibited

TbNT11.1 (Trypanosoma brucei brucei TREU927)
Km (O=c1[nH]cnc2nc[nH]c12): 141 µM

Nc1ncnc2c1ncn2[C@@H]1O[C@H](CO)[C@@H](O)[C@H]1O [adenosine]
Uptake of [3H]adenosine (TbNT11.1 [5]): did not take up
Inhibition of [3H]hypoxanthine uptake by TbNT11.1 (in words) (TbNT11.1 [6]): an inhibitor

Oc1ncnc2[nH]ncc12 [allopurinol, 4-hydroxypyrazolo[3,4-d]-pyrimidine-4-one]
TbNT11.1-mediated uptake of radiolabeled substrate (TbNT11.1 [3]): promoted uptake
Ki (TbNT11.1 [6]): 67 µM

O=c1[nH]cnc2c1ncn2[C@@H]1O[C@H](CO)[C@@H](O)[C@H]1O [inosine]
Inhibition of [3H]hypoxanthine uptake by nucleosides (TbNT11.1 [6]): failure

Nc1nc(N)nc(Nc2ccc([As]3SCC(CO)S3)cc2)n1 (centres unmarked) [melarsoprol]
EC50 (TbNT11.1 [7]): 12.9 µM
Melarsoprol uptake over background of water injected oocytes (TbNT11.1 [8]): no uptake

Nc1nc2c(ncn2[C@@H]2O[C@H](CO)[C@@H](O)[C@H]2O)c(=O)[nH]1 [guanosine]
Inhibition of [3H]hypoxanthine uptake by nucleosides (TbNT11.1 [6]): failure

O=c1cc[nH]c(=O)[nH]1 [uracil]
Inhibition of hypoxanthine uptake by pyrimidine nucleobases (TbNT11.1 [6]): did not inhibit

OC[C@H]1O[C@@H](n2cnc3c(O)nc(O)nc32)[C@H](O)[C@@H]1O [xanthosine]
Inhibition of [3H]hypoxanthine uptake by nucleosides (TbNT11.1 [6]): failure

Nc1ncnc2[nH]cnc12 [adenine]
Transport by TbNT12.1 (in words) (TbNT12.1 [1]; Xenopus oocytes): transport
Affinity of TbNT12.1 for substrate (TbNT12.1 [1]; [12]): low
Transport by TbNT12.2 (in words) (TbNT12.2 [2]): transport
Affinity of TbNT12.2 for substrate (TbNT12.2 [2]; [12]): low
TbNT11.1-mediated uptake of radiolabeled substrate (TbNT11.1 [3]): mediated uptake
Inhibition of [14C]pentamidine uptake by unlabeled nucleobase (TbNT11.1 [4]; 50 μM [14C]pentamidine): very poor inhibitor
Uptake of adenine, TbNT12.2 in Δlmant3 promastigotes (TbNT12.2 [9]): 86.5 ± 1.1 pmol/min/10^7 parasites
Background uptake of adenine in Δlmant3 parasites (Δlmant3 parasites): 41.8 ± 1.4 pmol/min/10^7 parasites
Ki (TbNT11.1 [6]): 8 µM
Uptake of adenine, TbNT12.1 in Δlmant3 promastigotes (TbNT12.1 [10]): 103 ± 2 pmol/min/10^7 parasites
Inhibition of [14C]pentamidine uptake by PFs (PPT1): did not inhibit

Nc1cc[nH]c(=O)n1 [cytosine]
Inhibition of hypoxanthine uptake by pyrimidine nucleobases (TbNT11.1 [6]): did not inhibit

N=C(N)c1ccc(OCCCCCOc2ccc(C(=N)N)cc2)cc1 [pentamidine]
Vmax for pentamidine uptake by TbNT12.1 (TbNT12.1 [1]; Xenopus oocytes, n=3): 21.8 ± 6.5 pmol/h/oocyte
Transport by TbNT12.1 (in words) (TbNT12.1 [1]; Xenopus oocytes): also transport
Transport by TbNT12.2 (in words) (TbNT12.2 [2]): also transport
EC50 (TbNT11.1 [7]): 9.6 µM
Uptake of [14C]pentamidine by TbNT11.1 cRNA-injected oocytes (TbNT11.1 [4]; 50 μM [14C]pentamidine, versus water injected oocytes): much more rapidly than control water injected oocytes
Km (TbNT11.1 [4]; read-out: Km for pentamidine uptake by TbNT11.1, Xenopus oocytes, 1 h, n=3): 407 ± 119 µM
EC50 (TbNT11.1 [6]): 4.8 µM
Inhibition of hypoxanthine transport by TbNT8.1 (TbNT8.1): did not significantly inhibit

Nc1nc2nc[nH]c2c(=O)[nH]1 [guanine]
Transport by TbNT12.1 (in words) (TbNT12.1 [1]; Xenopus oocytes): did not mediate the uptake
Transport by TbNT12.2 (in words) (TbNT12.2 [2]): did not mediate the uptake
TbNT11.1-mediated uptake of radiolabeled substrate (TbNT11.1 [3]): not a substrate
Inhibition of [3H]hypoxanthine uptake by TbNT11.1 (in words) (TbNT11.1 [6]): an inhibitor
Inhibition of [14C]pentamidine uptake by PFs (PPT1): did not inhibit

B1: TbNT12.1 (Trypanosoma brucei brucei TREU927) (protein)
chain: MMLGFESVSEFTVYITFIFFGMSAVVVTTSIFSIPFFFIEYYKYAQGDPNAEAEDQRFWNNVFTYYNATTFLVEFLLTLFMLTNLGRRIPLAVRLGAGLILSILAVFVVIMVTIIKTTETGAKVTIMLVGVINGVAATLCDTGNGALISPFPTKFFSAVVWGVAVCGIITSFFSIVIKASMESNYESMLTQSRIFFGLVVLLEVVSCILLVLLRKNPYAMKYAAEFRYAARERTNACENKESGASNGPAEQDEDSVAIDNNTTKGNVMTVTVDPDTMKDTDQVEDITNSQQMLKAKVSVVLKRVWPMLAAGFLAFSTTFLVYPGVFFAVKTDVPNGWYMTITAAMFHFGDFLSRLLLQFKRLQPSPRYVVVGTFARVFLIIPLVFCVRGIIGGTLLPYILSFLWGLTYGYFGGMALIHTPRTGSLTAAGERSLAANCAVIAILCGLFSGSMLALAVKEGLPQ
Km [11]: 161 ± 8 µM

From publication PMC2630410 (Molecular and biochemical parasitology, 2008)
